Laboratory results from publication PMC7931429 (ACS Omega, 2021).
pIC50: −log10 of the molar value.

What was measured:
[1] = molecular target: T1, CHIKV nsP2 (Chikungunya virus, UniProt Q8JUX6); assay: Cell-free protease inhibition assay with recombinant CHIKV nsP2; type: biochemical; details: inhibitor 1 mM, nsP2 1.4 μM, substrate 6 μM, 30 °C, 1.5 h
T1 sequence (Q8JUX6 536-1333 limits assumed): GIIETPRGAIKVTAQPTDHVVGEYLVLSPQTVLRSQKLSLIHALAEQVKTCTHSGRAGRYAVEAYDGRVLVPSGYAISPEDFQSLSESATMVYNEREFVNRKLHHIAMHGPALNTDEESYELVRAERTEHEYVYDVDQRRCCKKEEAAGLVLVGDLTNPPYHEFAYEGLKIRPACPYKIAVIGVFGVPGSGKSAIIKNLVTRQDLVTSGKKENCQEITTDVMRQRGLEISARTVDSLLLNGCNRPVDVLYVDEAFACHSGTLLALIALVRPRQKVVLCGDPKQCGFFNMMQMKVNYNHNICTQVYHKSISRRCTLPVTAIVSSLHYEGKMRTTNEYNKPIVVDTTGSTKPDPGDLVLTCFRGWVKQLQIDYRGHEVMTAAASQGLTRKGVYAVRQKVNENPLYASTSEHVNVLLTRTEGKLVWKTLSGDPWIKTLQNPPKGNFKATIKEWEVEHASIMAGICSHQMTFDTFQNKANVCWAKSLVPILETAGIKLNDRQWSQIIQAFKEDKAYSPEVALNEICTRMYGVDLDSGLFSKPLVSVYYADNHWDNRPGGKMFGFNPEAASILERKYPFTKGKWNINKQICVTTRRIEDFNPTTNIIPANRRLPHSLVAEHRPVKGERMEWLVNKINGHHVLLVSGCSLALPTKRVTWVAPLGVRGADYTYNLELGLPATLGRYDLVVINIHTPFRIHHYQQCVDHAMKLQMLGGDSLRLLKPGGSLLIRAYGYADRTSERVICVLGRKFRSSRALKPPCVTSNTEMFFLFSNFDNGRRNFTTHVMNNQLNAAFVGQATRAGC

[2] = system: CHIKV-NanoLuc; assay: Antiviral activity against CHIKV-NanoLuc in RPE cells; type: cell-based; details: Chikungunya virus, 48 h, read-out: IC50 in RPE cells
[3] = system: CHIKV-NanoLuc; type: cell-based, Chikungunya virus; details: BHK-21 cells, MOI 10, 6 h post infection, concentration 10 times higher than IC50

Compound | Effect on protease activity of nsP2 (amount of cleavage product) [1] | pIC50 [2] | Virus replication (ns-protein and capsid protein expression) by western blot [3]
O=C(Nc1ncc([N+](=O)[O-])s1)c1cc(Cl)ccc1Cl [Compound 10c, 2,5-dichloro-N-(5-nitro-1,3-thiazol-2-yl)benzamide] | smaller inhibitory effect than compound 10 | – | –
(5Z)-3-ethyl-5-(naphthalen-1-ylmethylidene)-2-sulfanylidene-1,3-oxazolidin-4-one [Compound 1] | no effect | – | –
O=C(Nc1ncc([N+](=O)[O-])s1)c1ccccc1O [Compound 10, 2-hydroxy-N-(5-nitro-1,3-thiazol-2-yl)benzamide] | strongest inhibitory effect | 5.14 | completely inhibited
O=C(Nc1ncc([N+](=O)[O-])s1)c1cccc(Cl)c1 [Compound 10b, 3-chloro-N-(5-nitro-1,3-thiazol-2-yl)benzamide] | smaller inhibitory effect than compound 10 | – | –
